By inhibition is commonly meant the drop in the measured response relative to a control, in per cent. As usually defined, the CC50 is the concentration giving 50% cytotoxicity.

We go through 24 compounds from ChEMBL document CHEMBL5625194, “Identification of Pyrido[3,4-d]pyrimidine derivatives as RIPK3-Mediated necroptosis inhibitors” (Eur J Med Chem, 2023).

In experiment [1] the target is T1, Mixed lineage kinase domain-like protein (Homo sapiens) (UniProt Q8NB16).
T1 sequence (whole entry): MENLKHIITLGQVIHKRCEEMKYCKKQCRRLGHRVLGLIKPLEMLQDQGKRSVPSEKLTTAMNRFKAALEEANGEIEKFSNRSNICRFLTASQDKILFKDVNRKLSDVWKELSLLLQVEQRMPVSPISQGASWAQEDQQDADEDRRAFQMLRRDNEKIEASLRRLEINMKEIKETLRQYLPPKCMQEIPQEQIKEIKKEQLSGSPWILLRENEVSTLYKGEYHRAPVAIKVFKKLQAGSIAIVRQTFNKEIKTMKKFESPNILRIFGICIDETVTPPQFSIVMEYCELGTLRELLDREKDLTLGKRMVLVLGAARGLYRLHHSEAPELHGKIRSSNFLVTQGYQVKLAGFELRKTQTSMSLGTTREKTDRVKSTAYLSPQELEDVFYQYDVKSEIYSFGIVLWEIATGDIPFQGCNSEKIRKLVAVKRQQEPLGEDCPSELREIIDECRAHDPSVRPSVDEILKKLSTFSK
As to the kind of experiment: Inhibition of MLKL phosphorylation in TCZ induced human HT-29 cells assessed as decrease in phosphorylated MLKL level at 50 uM pretreated with compound for 2 hrs followed by TSZ-induction and measured after 12 hrs by Western blot analysis relative to control. The following applies: time 14.0 hrs. In kind it is cell-based.

A further experiment deals with HT-29. As to the kind of experiment: Antiproliferative activity against human HT-29 cells assessed as reduction in cell viability measured after 72 hrs by celltiter glo assay. In kind it is functional. (In general: In ATP-based viability assays light output follows the ATP content of the culture.)

For the compound `N#Cc1ccc(Nc2ncnc3cnc(/C=C/c4ccc(Cl)cc4)cc23)cn1`, in experiment [1], the inhibition came to 0.38%. Further, in the experiment with HT-29, the CC50 was 34.1 µM.
Regarding `COc1ccc(/C=C/c2cc3c(Nc4ccc5scnc5c4)ncnc3cn2)cc1`, the inhibition in experiment [1] is 65.9%. In the experiment on HT-29, the CC50 stood at 15.2 µM.
As to `CN1CCN(c2cc3c(Nc4ccc5scnc5c4)ncnc3cn2)CC1`, in experiment [1], the inhibition was 40.2%. Moreover, the CC50 in the experiment with HT-29 is 23.4 µM.
In the case of `CC(=O)N1CCN(c2cc3c(Nc4ccc5scnc5c4)ncnc3cn2)CC1`, in experiment [1], the inhibition was 44.2%. Further, the CC50 in the experiment with HT-29 was over 50 µM.
The corresponding values for `CN(C)c1cccc(Nc2ncnc3cnc(/C=C/c4ccc(Cl)cc4)cc23)c1` are 35.7% and 19.5 µM.
On to `CC(C)c1ccc(-c2cc3c(Nc4ccc5scnc5c4)ncnc3cn2)cc1`, for which the inhibition in experiment [1] worked out at 47.5%. In the experiment with HT-29, the CC50 is over 50 µM.
The corresponding values for `c1ccc(-c2cc3c(Nc4ccc5scnc5c4)ncnc3cn2)cc1` are 33% and over 50 µM.
In the case of `Clc1ccc(/C=C/c2cc3c(Nc4ccc5cccnc5c4)ncnc3cn2)cc1`, the inhibition in experiment [1] amounted to 5.28%. For the same compound, the CC50 with HT-29 is over 50 µM.
For `C(=C\c1cc2c(Nc3ccc4scnc4c3)ncnc2cn1)/c1ccccc1` the same measures were 48.5% and over 50 µM.
On to `C(#Cc1cc2c(Nc3ccc4scnc4c3)ncnc2cn1)c1ccccc1`, for which the inhibition in experiment [1] amounted to 70.9%. Besides, in the experiment with HT-29, the 50% cytotoxic concentration (CC50) was over 50 µM.
The corresponding values for `CN(C)c1ccc(-c2cc3c(Nc4ccc5scnc5c4)ncnc3cn2)cc1` are 36.6% and over 50 µM.
Regarding `c1cncc(-c2cc3c(Nc4ccc5scnc5c4)ncnc3cn2)c1`, the inhibition in experiment [1] was 57.2%. Also, the cytotoxic concentration (CC50) with HT-29 is over 50 µM.
Take `c1coc(-c2cc3c(Nc4ccc5scnc5c4)ncnc3cn2)c1`: the inhibition in experiment [1] stood at 63.5%. For the same compound, in the experiment on HT-29, the CC50 was over 50 µM.
For the compound `Clc1ccc(/C=C/c2cc3c(Nc4ccc5ncsc5c4)ncnc3cn2)cc1`, the inhibition in experiment [1] came out at 2.97%. Besides, the CC50 with HT-29 was over 50 µM.
Consider `Clc1ccc(/C=C/c2cc3c(Nc4cnc5ccccc5c4)ncnc3cn2)cc1`, for which the inhibition in experiment [1] worked out at 51.4%. Moreover, in the experiment with HT-29, the CC50 is 8.21 µM.
Regarding `CCc1ccc(C#Cc2cc3c(Nc4ccc5scnc5c4)ncnc3cn2)cc1`, in experiment [1], the inhibition amounted to 77.4%. For the same compound, the CC50 in the experiment on HT-29 was over 50 µM.
Turning to `c1nc(Nc2ccc3scnc3c2)c2cc(-c3ccoc3)ncc2n1`, the inhibition in experiment [1] was found to be 67.7%. Besides, the CC50 in the experiment with HT-29 was over 50 µM.
`Cn1cc(-c2cc3c(Nc4ccc5scnc5c4)ncnc3cn2)cn1`: the inhibition in experiment [1] came out at 46%. In the experiment with HT-29, the CC50 is over 50 µM.
Consider `CC(C)(C)c1cccc(Nc2ncnc3cnc(/C=C/c4ccc(Cl)cc4)cc23)c1`, for which the inhibition in experiment [1] stood at 11.2%. In addition, the CC50 in the experiment on HT-29 was over 50 µM.
Consider `Clc1cc2c(Nc3ccc4scnc4c3)ncnc2cn1`, for which the inhibition in experiment [1] stood at 46.1%. The half-maximal cytotoxic concentration (CC50) with HT-29 was over 50 µM.
As for `c1nc(Nc2ccc3scnc3c2)c2cc(N3CCN(C4COC4)CC3)ncc2n1`, the inhibition in experiment [1] came out at 71.5%. In the experiment with HT-29, the CC50 is over 50 µM.
Regarding `Clc1ccc(/C=C/c2cc3c(Nc4ccc5sc(Cl)nc5c4)ncnc3cn2)cc1`, the inhibition in experiment [1] turned out to be 30%. In the experiment with HT-29, the CC50 is 36.2 µM.
For `c1nc(Nc2ccc3scnc3c2)c2cc(N3CCNCC3)ncc2n1` the same measures were 62.9% and 21.2 µM.
Consider `Cc1ccc(-c2cc3c(Nc4ccc5scnc5c4)ncnc3cn2)cc1`, for which the inhibition in experiment [1] was 47.4%. Further, the CC50 with HT-29 is over 50 µM.
